The values that follow come from patent US12187713B2, “Immunomodulators, compositions and methods thereof” (Betta Pharmaceuticals Co., Ltd, priority 2019, dated 2025).

In one data set the target is PD-1/PD-L1 (Homo sapiens (Human), UniProt Q9NZQ7). Kind of data set: PD-1/PD-L1 Binding Assay (Alphascreen). The settings on record: numeric values. The essentials:
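PD-1/PD-L1 binding detected by anti-6×His acceptor and streptavidin donor beads after 120 min in the dark at 25 °C. Beforehand, the two proteins were incubated 15 min at 25 °C with inhibitor at 0.015–300 nM (1% DMSO). IC50 comes from a log concentration–response curve.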
On the technique in general: Alpha assays give light when donor and acceptor beads are brought close together.

Data set [1] in a line: Pharmacokinetic Assay, single oral dose 100 mg/kg (Table 11). Type of data set: in vivo. The settings on record: mouse, C57 female mice, oral (intragastric), plasma. As for the experimental part: Adult C57 female mice were received to single-dose of the test compounds with […], 10% Kolliphor^@HS 15 and 80% saline as excipients, the mice (n=9) were giving oral administration (intragastric administration) with the compounds at a dose of 100 mg/kg. Time of blood collection: 15 min, 30 min, 1 h, 2 h, 4 h, 7 h, 24 h. Approximately 0.1 mL of whole blood was collected from retro-orbital venous plexus of 3 mice at each time point, and placed into tubes that contained K2-EDTA as an anticoagulant. The whole blood was centrifuged at 4° C. and 4000 rpm for 10 min. The plasma was transferred into centrifuge tubes, and stored at −20° C. until being analyzed. Concentrations of test compounds in the plasma samples were analyzed with liquid chromatography-tandem mass spectrometry (LC-MS/MS). Plasma concentration-time data of individual animals was analyzed using Microsoft Excel 2010. Non-compartmental model was introduced in concentration analysis. The pharmacokinetic parameters of the test compounds were calculated using WinNonlin (version 4.1; Pharsight) software.

Molecules are shown by their SMILES.

Chain of PD-1/PD-L1 (Q9NZQ7 19-238): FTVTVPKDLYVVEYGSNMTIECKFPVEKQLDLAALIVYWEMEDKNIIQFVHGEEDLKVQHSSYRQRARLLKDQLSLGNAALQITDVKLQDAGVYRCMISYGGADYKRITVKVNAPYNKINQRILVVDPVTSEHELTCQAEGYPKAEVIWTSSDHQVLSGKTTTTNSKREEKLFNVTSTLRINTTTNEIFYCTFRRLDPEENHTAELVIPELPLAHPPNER

The IC50 is the concentration needed to halve the response being measured. As usually defined, the AUC is the area under the concentration-time curve, a measure of exposure. Read a low AUC as less exposure. As usually defined, the Cmax is the peak of the concentration-time curve. The term Tmax denotes the time from dosing to the highest level. As usually defined, the half-life is how long it takes for the measured level to halve. High values mean slow loss, low ones fast loss. In turn, `Cc1c(-c2nc3cc(CN4CCC[C@H]4C(=O)O)c(OC(F)F)cc3o2)cccc1-c1cccc(-c2nc3cc(CN4CCC[C@H]4C(=O)O)c(OC(F)F)cc3o2)c1C` [Example 2, (2′S)-(((2,2′-dimethyl-[1,1′-biphenyl]-3,3′-diyl)bis(6-(difluoromethoxy)benzo[d]oxazole-2,5-diyl))bis(methylene))di-L-proline] displayed an IC50 at PD-1/PD-L1 of 0.2 nM. For the same compound, in data set [1], the AUC is 271 ng·h/mL, the Cmax turned out to be 218 ng/mL, the Tmax turned out to be 0.5 h and the half-life is 198 min.

As to `COC(=O)[C@@H]1CCCN1Cc1cc2nc(-c3cccc(-c4cccc(-c5nc6cc(CN7CCC[C@H]7C(=O)O)c(OC(F)F)cc6o5)c4C)c3C)oc2cc1OC(F)F` [Example 3, ((6-(difluoromethoxy)-2-(3′-(6-(difluoromethoxy)-5-(((S)-2-(methoxycarbonyl)pyrrolidin-1-yl)methyl)benzo[d]oxazol-2-yl)-2,2′-dimethyl-[1,1′-biphenyl]-3-yl)benzo[d]oxazol-5-yl)methyl)-L-proline], on PD-1/PD-L1, the half-maximal inhibitory concentration (IC50) worked out at 89 nM. Further, in data set [1], the AUC amounted to 461 ng·h/mL, the highest concentration (Cmax) was found to be 374 ng/mL, the Tmax was determined as 1 h and the half-life is 23.4 min.

Consider `Cc1c(-c2nc3cc(CN4CCC4)c(OC(F)F)cc3o2)cccc1-c1cccc(-c2nc3cc(CN4CCC[C@H]4C(=O)O)c(OC(F)F)cc3o2)c1C` [Example 8, ((2-(3′-(5-(azetidin-1-ylmethyl)-6-(difluoromethoxy)benzo[d]oxazol-2-yl)-2,2′-dimethyl-[1,1′-biphenyl]-3-yl)-6-(difluoromethoxy)benzo[d]oxazol-5-yl)methyl)-L-proline], for which, at PD-1/PD-L1, the IC50 came out at 0.75 nM. Moreover, in data set [1], the AUC came to 8240 ng·h/mL, the Cmax was 974 ng/mL, the Tmax came out at 4 h and the half-life was 238 min.

As to `Cc1c(-c2nc3cc(CN4CCC[C@H]4CO)c(OC(F)F)cc3o2)cccc1-c1cccc(-c2nc3cc(CN4CCC[C@H]4C(=O)O)c(OC(F)F)cc3o2)c1C` [Example 12, ((6-(difluoromethoxy)-2-(3′-(6-(difluoromethoxy)-5-(((S)-2-(hydroxymethyl)pyrrolidin-1-yl)methyl)benzo[d]oxazol-2-yl)-2,2′-dimethyl-[1,1′-biphenyl]-3-yl)benzo[d]oxazol-5-yl)methyl)-L-proline], at PD-1/PD-L1, the IC50 was 1.1 nM. Besides, in data set [1], the AUC is 14500 ng·h/mL, the Cmax was determined as 1380 ng/mL, the Tmax is 2 h and the half-life is 478 min.

Regarding `Cc1c(-c2nc3cc(CN4CCC(O)C4)c(OC(F)F)cc3o2)cccc1-c1cccc(-c2nc3cc(CN4CCC[C@H]4C(=O)O)c(OC(F)F)cc3o2)c1C` (stereo partly drawn) [Example 14, ((6-(difluoromethoxy)-2-(3′-(6-(difluoromethoxy)-5-((3-hydroxypyrrolidin-1-yl)methyl)benzo[d]oxazol-2-yl)-2,2′-dimethyl-[1,1′-biphenyl]-3-yl)benzo[d]oxazol-5-yl)methyl)-L-proline], on PD-1/PD-L1, the half-maximal inhibitory concentration (IC50) amounted to 1.2 nM. Moreover, in data set [1], the AUC is 3450 ng·h/mL, the highest level (Cmax) was 589 ng/mL, the Tmax stood at 1 h and the half-life was 372 min.

With `CNCc1cc2nc(-c3cccc(-c4cccc(-c5nc6cc(CN7CCC[C@H]7C(=O)O)c(OC(F)F)cc6o5)c4C)c3C)oc2cc1OC(F)F` [Example 15, ((6-(difluoromethoxy)-2-(3′-(6-(difluoromethoxy)-5-((methylamino)methyl)benzo[d]oxazol-2-yl)-2,2′-dimethyl-[1,1′-biphenyl]-3-yl)benzo[d]oxazol-5-yl)methyl)-L-proline], the IC50 at PD-1/PD-L1 is 0.5 nM. In data set [1], the AUC amounted to 5710 ng·h/mL, the Cmax stood at 931 ng/mL, the time to peak (Tmax) was found to be 1 h and the half-life is 590 min.

`Cc1c(-c2nc3cc(CN(C)C)c(OC(F)F)cc3o2)cccc1-c1cccc(-c2nc3cc(CN4CCC[C@H]4C(=O)O)c(OC(F)F)cc3o2)c1C` [Example 16, ((6-(difluoromethoxy)-2-(3′-(6-(difluoromethoxy)-5-((dimethylamino)methyl)benzo [d]oxazol-2-yl)-2,2′-dimethyl-[1,1′-biphenyl]-3-yl)benzo[d]oxazol-5-yl)methyl)-L-proline]: on PD-1/PD-L1, the IC50 was 1.1 nM. Further, in data set [1], the AUC was determined as 20900 ng·h/mL, the Cmax turned out to be 1470 ng/mL, the Tmax worked out at 4 h and the half-life was 288 min.

Take `Cc1c(-c2nc3cc(CNC4COC4)c(OC(F)F)cc3o2)cccc1-c1cccc(-c2nc3cc(CN4CCC[C@H]4C(=O)O)c(OC(F)F)cc3o2)c1C` [Example 28, ((6-(difluoromethoxy)-2-(3′-(6-(difluoromethoxy)-5-((oxetan-3-ylamino)methyl)benzo [d]oxazol-2-yl)-2,2′-dimethyl-[1,1′-biphenyl]-3-yl)benzo[d]oxazol-5-yl)methyl)-L-proline]: the IC50 on PD-1/PD-L1 amounted to 3.2 nM. Also, in data set [1], the AUC came to 5800 ng·h/mL, the Cmax was 1280 ng/mL, the Tmax was 1 h and the half-life is 167 min.

`Cc1c(-c2nc3cc(CNC[C@H]4CCCO4)c(OC(F)F)cc3o2)cccc1-c1cccc(-c2nc3cc(CN4CCC[C@H]4C(=O)O)c(OC(F)F)cc3o2)c1C` [Example 29, ((6-(difluoromethoxy)-2-(3′-(6-(difluoromethoxy)-5-(((((R)-tetrahydrofuran-2-yl)methyl)amino)methyl)benzo[d]oxazol-2-yl)-2,2′-dimethyl-[1,1′-biphenyl]-3-yl)benzo[d]oxazol-5-yl)methyl)-L-proline] displayed an IC50 on PD-1/PD-L1 of 1.2 nM. Also, in data set [1], the AUC stood at 42700 ng·h/mL, the Cmax worked out at 3720 ng/mL, the Tmax came out at 1 h and the half-life was 280 min.

Regarding `Cc1c(-c2nc3cc(CN4CC[C@H]4CO)c(OC(F)F)cc3o2)cccc1-c1cccc(-c2nc3cc(CN4CCC[C@H]4C(=O)O)c(OC(F)F)cc3o2)c1C` [Example 31, ((6-(difluoromethoxy)-2-(3′-(6-(difluoromethoxy)-5-(((S)-2-(hydroxymethyl)azetidin-1-yl)methyl)benzo[d]oxazol-2-yl)-2,2′-dimethyl-[1,1′-biphenyl]-3-yl)benzo[d]oxazol-5-yl)methyl)-L-proline], on PD-1/PD-L1, the IC50 worked out at 0.5 nM. Further, in data set [1], the AUC was 6600 ng·h/mL, the Cmax is 1000 ng/mL, the Tmax is 1 h and the half-life was 589 min.

As for `Cc1c(-c2nc3cc(CN4CC(N(C)C)C4)c(OC(F)F)cc3o2)cccc1-c1cccc(-c2nc3cc(CN4CCC[C@H]4C(=O)O)c(OC(F)F)cc3o2)c1C` [Example 33, ((6-(difluoromethoxy)-2-(3′-(6-(difluoromethoxy)-5-((3-(dimethylamino)azetidin-1-yl)methyl)benzo[d]oxazol-2-yl)-2,2′-dimethyl-[1,1′-biphenyl]-3-yl)benzo[d]oxazol-5-yl)methyl)-L-proline], on PD-1/PD-L1, the IC50 was determined as 1.5 nM. Further, in data set [1], the AUC came to 8920 ng·h/mL, the Cmax was found to be 727 ng/mL, the Tmax stood at 4 h and the half-life is 660 min.

`Cc1c(-c2nc3cc(CN4CCC4C)c(OC(F)F)cc3o2)cccc1-c1cccc(-c2nc3cc(CN4CCC[C@H]4C(=O)O)c(OC(F)F)cc3o2)c1C` (stereo partly drawn) [Example 36, ((6-(difluoromethoxy)-2-(3′-(6-(difluoromethoxy)-5-((2-methylazetidin-1-yl)methyl)benzo[d]oxazol-2-yl)-2,2′-dimethyl-[1,1′-biphenyl]-3-yl)benzo[d]oxazol-5-yl)methyl)-L-proline] registered an IC50 at PD-1/PD-L1 of 1.1 nM. In addition, in data set [1], the AUC came out at 21400 ng·h/mL, the highest concentration (Cmax) was determined as 1670 ng/mL, the Tmax came out at 1 h and the half-life was 496 min.

Regarding `Cc1c(-c2nc3cc(CN4CCC(C)C4)c(OC(F)F)cc3o2)cccc1-c1cccc(-c2nc3cc(CN4CCC[C@H]4C(=O)O)c(OC(F)F)cc3o2)c1C` (stereo partly drawn) [Example 61, ((6-(difluoromethoxy)-2-(3′-(6-(difluoromethoxy)-5-((3-methylpyrrolidin-1-yl)methyl)benzo[d]oxazol-2-yl)-2,2′-dimethyl-[1,1′-biphenyl]-3-yl)benzo[d]oxazol-5-yl)methyl)-L-proline], the IC50 at PD-1/PD-L1 stood at 1.6 nM. Moreover, in data set [1], the AUC is 118000 ng·h/mL, the Cmax amounted to 8650 ng/mL, the Tmax was found to be 4 h and the half-life was 322 min.

In turn, `Cc1c(-c2nc3cc(CN4CCC[C@H]4C(=O)O)c(OC(F)F)cc3o2)cccc1-c1cccc(-c2nc3cc(CN4CCCC4(C)C)c(OC(F)F)cc3o2)c1C` [Example 62, ((6-(difluoromethoxy)-2-(3′-(6-(difluoromethoxy)-5-((2,2-dimethylpyrrolidin-1-yl)methyl)benzo[d]oxazol-2-yl)-2,2′-dimethyl-[1,1′-biphenyl]-3-yl)benzo[d]oxazol-5-yl)methyl)-L-proline] showed a half-inhibitory concentration (IC50) on PD-1/PD-L1 of 2.6 nM. In data set [1], the AUC was found to be 46500 ng·h/mL, the Cmax turned out to be 4280 ng/mL, the Tmax is 4 h and the half-life is 581 min.
